# In US20260007133A1, “HERBICIDAL COMPOSITION COMPRISING AZINE COMPOUNDS” (BASF SE, priority 2022, published 2026):
# Where “and” joins values, the source holds several entries; their conditions need not be identical. Equal values may be shown once. Read-outs that look alike come from different tables or passages of the source.
# Tests used:
# Type in all cases: in vivo
# [1] = system: Euphorbia heterophylla; assay: Greenhouse pre-emergence (PRE) herbicidal test on EPHHL; conditions: for inhibition at 8 g/ha: use rate 8 gai/ha
# Method in brief: (§1)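 Seeds were sown per species in loamy sand with ~3.0% humus, treated pre-emergence and kept at 10-25° C or 20-35° C depending on species. Damage was scored at 20 days after treatment on a 0-100 scale (100 = no emergence or complete destruction of above-ground parts, 0 = no damage).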
# [2] = system: Lolium multiflorum; assay: Greenhouse pre-emergence (PRE) herbicidal test on LOLMU; conditions: Lolium multiflorum, pre-emergence; for inhibition at 2 g/ha: use rate 2 gai/ha; for inhibition at 8 g/ha: use rate 8 gai/ha; for inhibition at 1 g/ha: use rate 1 gai/ha
# Method in brief: as §1
# [3] = system: Amaranthus retroflexus; assay: Greenhouse post-emergence (POST) herbicidal test on AMARE; conditions: Amaranthus retroflexus, post-emergence, POST, AMARE
# Method in brief: (§2)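 POST spray at 3–15 cm plant height, BBCH stage as given; loamy sand, ~3.0% humus; 10-25° C / 20-35° C per species; 0–100 damage scale; read 20 DAT.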
# [4] = system: Alopecurus myosuroides; assay: Greenhouse pre-emergence (PRE) herbicidal test on ALOMY
# Method in brief: as §1
# [5] = system: Echinochloa crus-galli; assay: Greenhouse post-emergence (POST) herbicidal test on ECHCG; conditions: Echinochloa crus-galli, post-emergence; for inhibition at 2 g/ha: use rate 2 gai/ha; for inhibition at 1 g/ha: use rate 1 gai/ha
# Method in brief: as §2
# [6] = system: Setaria viridis; assay: Greenhouse pre-emergence (PRE) herbicidal test on SETVI; conditions: Setaria viridis, pre-emergence; for inhibition at 2 g/ha: use rate 2 gai/ha
# Method in brief: (§3)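 Seeds sown in loamy sand (~3.0% humus); compounds in water applied by fine nozzles directly after sowing, then pots irrigated and hooded until rooting. Plants held at 10-25° C or 20-35° C by species; damage scored 0-100 (100 = no emergence/complete destruction) 20 days after treatment.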
# [7] = system: Amaranthus retroflexus; assay: Greenhouse pre-emergence (PRE) herbicidal test on AMARE; conditions: Amaranthus retroflexus, pre-emergence; AMARE PRE, use rate 2 gai/ha; read-out: % activity
# Method in brief: as §1
# [8] = system: Commelina benghalensis; assay: Greenhouse pre-emergence (PRE) herbicidal test on COMBE; conditions: Commelina benghalensis, pre-emergence
# Method in brief: as §1
# [9] = system: Abutilon theophrasti; assay: Greenhouse pre-emergence (PRE) herbicidal test on ABUTH; conditions: Abutilon theophrasti, pre-emergence; for inhibition at 8 g/ha: use rate 8 gai/ha; for inhibition at 2 g/ha: use rate 2 gai/ha
# Method in brief: as §1
# [10] = system: Geranium pusillum; assay: Greenhouse pre-emergence (PRE) herbicidal test on GERPU; conditions: Geranium pusillum, pre-emergence; for inhibition at 4 g/ha: use rate 4 gai/ha
# Method in brief: as §3
# [11] = system: Echinochloa crus-galli; assay: Greenhouse pre-emergence (PRE) herbicidal test on ECHCG; conditions: PRE, ECHCG, use rate 2 gai/ha, 20 DAT
# [12] = system: Avena fatua; assay: Greenhouse pre-emergence (PRE) herbicidal test on AVEFA; conditions: use rate 4 gai/ha
# Description: (§4) The culture containers used were plastic pots containing loamy sand with approximately 3.0% of humus as substrate. The seeds of the test plants were sown separately for each species.
# (§5) For the pre-emergence treatment, the active compounds, suspended or emulsified in water, were applied directly after sowing by means of finely distributing nozzles. The containers were irrigated gently to promote germination and growth and subsequently covered with transparent plastic hoods until the plants had rooted. This cover caused uniform germination of the test plants unless this was adversely affected by the active compounds.
# (§6) Depending on the species, the plants were kept at 10-25° C. and 20-35° C., respectively.
# (§7) The test period extended over 2 to 4 weeks. During this time, the plants were tended and their response to the individual treatments was evaluated.
# (§8) Evaluation was carried out using a scale from 0 to 100. 100 means no emergence of the plants, or complete destruction of at least the above-ground parts, and 0 means no damage or normal course of growth. A good herbicidal activity is given at values of at least 70, and very good herbicidal activity is given at values of at least 85.
# (§9) If not stated differently, the respective components A and B, and if appropriate, C were formulated as a 5% by weight strength emulsion concentrate and, with addition of the amount of solvent system, introduced into the spray liquor used for applying the active compound.
# (§10) As indicated application was either post emergent (POST) at the respective growth stage (GS) of the weed (BBCH code), or pre-emergent (PRE).
# (§11) Assessment was 20 days after treatment (DAT).
# [13] = system: Brachiaria decumbens; assay: Greenhouse pre-emergence (PRE) herbicidal test on BRADC; conditions: Urochloa decumbens, PRE, BRADC, use rate 1 gai/ha
# Description: as §4, §5, §6, §7, §8, §9, §10, §11
# [14] = 480 h, PRE, LOLMU, 20 DAT, read-out: solo application % activity
# [15] = ABUTH PRE, read-out: % activity
# [16] = POST, ECHCG, read-out: % activity
smiles,measurement,setting,value
"COc1c(Cl)c(F)c(F)c(F)c1Nc1nc(N)nc(C(C)(C)F)n1 [Compound I-4, N4-(5-Chloro-2,3,4-trifluoro-6-methoxy-phenyl)-6-(1-fluoro-1-methyl-ethyl)-1,3,5-triazine-2,4-diamine]",pest or weed control at 8 g/ha,"[1]; Euphorbia heterophylla, pre-emergence, 480 h, PRE, EPHHL, I-4 solo 8 gai/ha, 20 DAT",5%
same,inhibition at 2 g/ha,"[1]; Euphorbia heterophylla, pre-emergence, 480 h, PRE, EPHHL, use rate 2 gai/ha, 20 DAT, read-out: solo application % activity",0%
same,inhibition at 8 g/ha,"[1]; Euphorbia heterophylla, pre-emergence, 480 h, PRE, EPHHL, 20 DAT, read-out: solo application % activity",10%
same,inhibition at 8 g/ha,"[1]; Euphorbia heterophylla, pre-emergence, EPHHL PRE, read-out: % activity",40%
same,pest or weed control at 2 g/ha,"[2]; 480 h, PRE, LOLMU, I-4 solo 2 gai/ha, 20 DAT, read-out: % activity",10%
same,pest or weed control at 8 g/ha,"[2]; 480 h, PRE, LOLMU, I-4 solo 8 gai/ha, 20 DAT",65%
same,inhibition at 2 g/ha,[2]; [14],5%
same,inhibition at 8 g/ha,[2]; [14],60%
same,inhibition at 8 g/ha,"[2]; LOLMU PRE, read-out: % activity",35%
same,inhibition at 2 g/ha,"[3]; 480 h, use rate 2 gai/ha, 20 DAT, read-out: solo application % activity",80%
same,inhibition at 8 g/ha,"[3]; 480 h, use rate 8 gai/ha, 20 DAT, read-out: solo application % activity",75%
same,pest or weed control at 2 g/ha,"[4]; Alopecurus myosuroides, pre-emergence, 480 h, PRE, ALOMY, I-4 solo 2 gai/ha, 20 DAT, read-out: % activity",50%
same,inhibition at 2 g/ha,"[4]; Alopecurus myosuroides, pre-emergence, 480 h, PRE, ALOMY, use rate 2 gai/ha, 20 DAT, read-out: solo application % activity",5%
same,inhibition at 8 g/ha,"[4]; Alopecurus myosuroides, pre-emergence, 480 h, PRE, ALOMY, use rate 8 gai/ha, 20 DAT, read-out: solo application % activity",25%
same,inhibition at 2 g/ha,"[5]; 480 h, POST, ECHCG, 20 DAT, read-out: solo application % activity",0%
same,inhibition at 8 g/ha,"[5]; 480 h, POST, ECHCG, use rate 8 gai/ha, 20 DAT, read-out: solo application % activity",5%
same,pest or weed control at 8 g/ha,"[6]; 480 h, PRE, SETVI, I-4 solo 8 gai/ha, 20 DAT",80%
same,inhibition at 2 g/ha,"[6]; 480 h, PRE, SETVI, 20 DAT, read-out: solo application % activity",5%
same,inhibition at 8 g/ha,"[6]; 480 h, PRE, SETVI, use rate 8 gai/ha, 20 DAT, read-out: solo application % activity",75%
same,inhibition at 2 g/ha,"[6]; SETVI PRE, read-out: % activity",50%
same,inhibition at 2 g/ha,[7],70%
same,pest or weed control at 2 g/ha,"[8]; 480 h, PRE, COMBE, I-4 solo 2 gai/ha, 20 DAT, read-out: % activity",10%
same,inhibition at 8 g/ha,"[8]; 480 h, PRE, COMBE, use rate 8 gai/ha, 20 DAT, read-out: solo application % activity",10%
same,inhibition at 8 g/ha,"[9]; 240 h, PRE, 10 DAT, read-out: % activity",50%
same,inhibition at 16 g/ha,"[9]; 240 h, PRE, use rate 16 gai/ha, 10 DAT",70%
same,pest or weed control at 2 g/ha,"[9]; 480 h, PRE, ABUTH, I-4 solo 2 gai/ha, 20 DAT",35%
same,inhibition at 8 g/ha,"[9]; 480 h, PRE, ABUTH, 20 DAT, read-out: solo application % activity",90%
same,inhibition at 2 g/ha,[9]; [15],10%
same,inhibition at 8 g/ha,[9]; [15],80%
same,inhibition at 2 g/ha,"[10]; 480 h, PRE, use rate 2 gai/ha, 20 DAT",10%
COc1c(F)cc(F)c(F)c1Nc1nc(N)nc(C(C)(C)F)n1 [Compound I-1],% activity,"[1]; EPHHL PRE, use rate 4 gai/ha",20%
same,inhibition at 16 g/ha,"[1]; Euphorbia heterophylla, pre-emergence, 480 h, PRE, EPHHL, use rate 16 gai/ha, 20 DAT",60%
same,inhibition at 4 g/ha,"[1]; Euphorbia heterophylla, pre-emergence, EPHHL PRE, use rate 4 gai/ha",25%
same,inhibition at 1 g/ha,"[1]; Euphorbia heterophylla, pre-emergence, PRE, EPPHL, use rate 1 gai/ha, read-out: % activity",0%
same,inhibition at 4 g/ha,"[1]; Euphorbia heterophylla, pre-emergence, PRE, EPPHL, use rate 4 gai/ha",70%
same,inhibition at 1 g/ha,"[2]; 480 h, PRE, LOLMU, 20 DAT",40%
same,inhibition at 2 g/ha,"[2]; 480 h, PRE, LOLMU, 20 DAT, read-out: % activity",50%
same,inhibition at 1 g/ha,[2]; LOLMU PRE,20%
same,inhibition at 4 g/ha,"[2]; LOLMU PRE, use rate 4 gai/ha",85%
same,inhibition at 1 g/ha,"[2]; PRE, LOLMU",35%
same,inhibition at 1 g/ha,[3]; use rate 1 gai/ha,50%
same,% activity,"[4]; ALOMY PRE, use rate 1 gai/ha",30%
same,inhibition at 1 g/ha,"[4]; Alopecurus myosuroides, pre-emergence, 480 h, PRE, ALOMY, use rate 1 gai/ha, 20 DAT",10%
same,inhibition at 1 g/ha,"[4]; Alopecurus myosuroides, pre-emergence, ALOMY PRE, use rate 1 gai/ha",15%
same,inhibition at 4 g/ha,"[4]; Alopecurus myosuroides, pre-emergence, ALOMY PRE, use rate 4 gai/ha",90%
same,inhibition at 4 g/ha,"[5]; 480 h, POST, ECHCG, use rate 4 gai/ha, 20 DAT",0%
same,inhibition at 1 g/ha,"[5]; ECHCG POST, read-out: % activity",30%
same,inhibition at 1 g/ha,[5]; [16],10%
same,inhibition at 2 g/ha,[5]; [16],10%
same,inhibition at 2 g/ha,"[6]; 480 h, PRE, SETVI, 20 DAT, read-out: % activity",20%
same,% activity,[11],35% and 65%
same,inhibition at 1 g/ha,"[8]; COMBE PRE, use rate 1 gai/ha",35%
same,inhibition at 4 g/ha,"[8]; COMBE PRE, use rate 4 gai/ha",0%
same,inhibition at 4 g/ha,[12],70%
same,inhibition at 2 g/ha,"[9]; 480 h, PRE, ABUTH, 20 DAT, read-out: % activity",65%
same,inhibition at 4 g/ha,"[9]; 480 h, PRE, ABUTH, use rate 4 gai/ha, 20 DAT",75%
same,inhibition at 1 g/ha,"[9]; ABUTH PRE, use rate 1 gai/ha, read-out: % activity",75%
same,inhibition at 1 g/ha,[13],0%
same,inhibition at 4 g/ha,"[10]; 480 h, PRE, GERPU, 20 DAT",50%
same,inhibition at 1 g/ha,"[10]; GERPU PRE, use rate 1 gai/ha",0%
same,inhibition at 4 g/ha,[10]; GERPU PRE,20%
same,inhibition at 4 g/ha,"[10]; PRE, GERPU",10%
